Results as given in ChEMBL document CHEMBL1201862, “PubChem BioAssay data set” (2004).
Active and inactive are the calls of the source.

Key:
Cytochrome P450 3A4 = Cytochrome P450 3A4 (Homo sapiens, UniProt P08684); settings: Potency;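 further: confirmatory qHTS run detecting inhibitors and substrates of CYP3A4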
Large T antigen = Large T antigen (Simian virus 40, UniProt P03070); format: functional, Betapolyomavirus macacae;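 further: Confirmatory-stage PubChem screen for compounds that inhibit SV40 T antigen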
Chain of Large T antigen (P03070 whole entry): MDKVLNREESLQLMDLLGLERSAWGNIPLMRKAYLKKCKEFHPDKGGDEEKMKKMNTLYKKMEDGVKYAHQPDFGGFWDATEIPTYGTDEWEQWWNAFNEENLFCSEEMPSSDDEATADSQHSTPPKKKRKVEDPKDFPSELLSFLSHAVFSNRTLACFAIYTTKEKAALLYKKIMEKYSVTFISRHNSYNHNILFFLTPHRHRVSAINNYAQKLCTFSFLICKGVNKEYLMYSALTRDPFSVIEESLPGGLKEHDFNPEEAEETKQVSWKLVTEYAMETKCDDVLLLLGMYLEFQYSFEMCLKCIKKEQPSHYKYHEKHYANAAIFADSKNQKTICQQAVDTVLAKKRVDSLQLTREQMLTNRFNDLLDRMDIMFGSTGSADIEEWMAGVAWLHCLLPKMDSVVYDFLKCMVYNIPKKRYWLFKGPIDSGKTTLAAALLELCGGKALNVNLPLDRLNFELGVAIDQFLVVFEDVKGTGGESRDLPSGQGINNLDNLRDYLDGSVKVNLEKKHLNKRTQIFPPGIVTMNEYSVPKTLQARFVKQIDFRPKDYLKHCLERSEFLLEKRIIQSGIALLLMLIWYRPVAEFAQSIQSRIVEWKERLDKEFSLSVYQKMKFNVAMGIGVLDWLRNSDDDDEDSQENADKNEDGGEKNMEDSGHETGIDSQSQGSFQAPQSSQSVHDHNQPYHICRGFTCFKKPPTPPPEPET

Genome polyprotein = Genome polyprotein (dengue virus type 2, UniProt P29990); assay: flavivirus cap methylation enzyme inhibition – biochemical, confirmation dose response, primary screen (AID 588689); format: functional
cells [1] = format: functional, cell-based
cells [2] = format: functional, cell-based; remark: listed apart in the source
[3] = biological target: T1, Small ubiquitin-related modifier 1 (Homo sapiens, UniProt P63165); assay: SUMO1 protein interaction blockers, potency – biochemical, fluorescence polarization, uHTS hits, dose response (AID 624382); format: functional; settings: read-out: IC50_Mean
T1 sequence (P63165 whole entry): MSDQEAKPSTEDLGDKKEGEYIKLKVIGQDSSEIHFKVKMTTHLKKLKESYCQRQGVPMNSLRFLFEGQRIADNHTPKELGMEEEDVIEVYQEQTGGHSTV

[4] = biological target: T1, Small ubiquitin-related modifier 1; assay: SUMO1 protein-protein binding blockers, potency – biochemical, FRET, dose response (AID 624383); format: functional; settings: read-out: IC50_Mean
Protein skinhead-1 = biological target: T2, Protein skinhead-1 (Caenorhabditis elegans, UniProt P34707); format: functional
T2 sequence (P34707 whole entry): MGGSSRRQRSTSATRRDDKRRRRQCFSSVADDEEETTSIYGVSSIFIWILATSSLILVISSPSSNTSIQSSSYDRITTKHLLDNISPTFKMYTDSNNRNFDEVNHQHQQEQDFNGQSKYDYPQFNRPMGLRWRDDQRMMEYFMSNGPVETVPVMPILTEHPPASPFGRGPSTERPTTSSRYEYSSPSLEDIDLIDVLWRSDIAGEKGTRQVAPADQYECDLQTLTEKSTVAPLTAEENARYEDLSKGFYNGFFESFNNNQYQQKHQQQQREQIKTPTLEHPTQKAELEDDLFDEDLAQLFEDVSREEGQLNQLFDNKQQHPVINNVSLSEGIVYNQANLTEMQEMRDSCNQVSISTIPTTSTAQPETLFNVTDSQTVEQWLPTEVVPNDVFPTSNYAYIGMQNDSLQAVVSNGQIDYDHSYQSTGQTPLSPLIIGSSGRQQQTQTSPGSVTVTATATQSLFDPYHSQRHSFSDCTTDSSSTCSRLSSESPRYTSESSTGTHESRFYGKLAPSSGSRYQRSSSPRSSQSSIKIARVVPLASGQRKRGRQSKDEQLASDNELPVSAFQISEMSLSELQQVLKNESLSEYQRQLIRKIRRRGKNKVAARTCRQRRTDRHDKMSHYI

[5] = biological target: FAD-linked sulfhydryl oxidase ALR (Homo sapiens, UniProt P55789); assay: ALR-catalysed DTT oxidation blockers – biochemical, H2O2 detection, luminescence, cherry-pick, dose response (AID 493248)
Chain of FAD-linked sulfhydryl oxidase ALR (P55789 whole entry, the tested form may be a part): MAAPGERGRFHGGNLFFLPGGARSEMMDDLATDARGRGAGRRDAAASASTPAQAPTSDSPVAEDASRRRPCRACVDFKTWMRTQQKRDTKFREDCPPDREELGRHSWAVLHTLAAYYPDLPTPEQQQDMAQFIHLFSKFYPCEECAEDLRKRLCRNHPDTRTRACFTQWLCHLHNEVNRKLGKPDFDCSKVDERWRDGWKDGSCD

[6] = biological target: T3, Polyadenylate-binding protein 1 (Homo sapiens, UniProt P11940); assay: MLLE domain peptide-binding blockers, IC50 – biochemical, fluorescence polarization, FITC-PAM2 peptide, dose response (AID 602259); format: functional; settings: read-out: IC50_Mean
T3 sequence (P11940 whole entry, the tested form may be a part): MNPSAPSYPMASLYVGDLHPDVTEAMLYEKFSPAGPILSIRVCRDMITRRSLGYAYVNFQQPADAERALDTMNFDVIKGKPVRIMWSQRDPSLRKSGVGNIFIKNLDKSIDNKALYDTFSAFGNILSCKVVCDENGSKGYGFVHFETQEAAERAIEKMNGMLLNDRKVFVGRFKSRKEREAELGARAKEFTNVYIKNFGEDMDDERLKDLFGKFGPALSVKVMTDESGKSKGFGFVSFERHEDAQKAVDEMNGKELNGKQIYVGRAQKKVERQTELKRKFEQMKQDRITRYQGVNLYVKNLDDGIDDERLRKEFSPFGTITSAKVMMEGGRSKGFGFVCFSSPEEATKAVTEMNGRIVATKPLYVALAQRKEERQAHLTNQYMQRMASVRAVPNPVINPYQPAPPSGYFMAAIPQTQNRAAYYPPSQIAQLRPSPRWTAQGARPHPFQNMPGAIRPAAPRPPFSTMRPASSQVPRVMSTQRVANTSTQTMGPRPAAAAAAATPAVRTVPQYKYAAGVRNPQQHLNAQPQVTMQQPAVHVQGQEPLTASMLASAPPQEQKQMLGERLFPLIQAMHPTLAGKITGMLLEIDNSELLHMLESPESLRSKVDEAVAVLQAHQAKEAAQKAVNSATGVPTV

[7] = biological target: T3, Polyadenylate-binding protein 1; assay: MLLE binding blockers, Cy5 peptide tracer – biochemical, fluorescence polarization, Cy5-PAM2 peptide, secondary, miRNA deadenylation inhibitor project, dose response (AID 602260); format: functional; settings: read-out: IC50_Mean
Vero [8] = assay: cells; format: functional, cell-based; settings: Chlorocebus sabaeus
cells [9] = format: functional, cell-based; remark: listed apart in the source
cells [10] = format: functional, cell-based; remark: listed apart in the source
Vero [11] = assay: cells; format: functional; settings: Chlorocebus sabaeus
[12] = biological target: T4, Microphthalmia-associated transcription factor (Homo sapiens, UniProt O75030); assay: reducers of TRPM1 reporter luminescence, concentration series – cell-based, SK-MEL-5, cherry-picked, set 3, MITF inhibitor project, dose response (AID 493073); format: functional;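 further: SK-MEL-5 melanoma cells with luciferase driven by the MITF target TRPM1 promoter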
T4 sequence (O75030 whole entry): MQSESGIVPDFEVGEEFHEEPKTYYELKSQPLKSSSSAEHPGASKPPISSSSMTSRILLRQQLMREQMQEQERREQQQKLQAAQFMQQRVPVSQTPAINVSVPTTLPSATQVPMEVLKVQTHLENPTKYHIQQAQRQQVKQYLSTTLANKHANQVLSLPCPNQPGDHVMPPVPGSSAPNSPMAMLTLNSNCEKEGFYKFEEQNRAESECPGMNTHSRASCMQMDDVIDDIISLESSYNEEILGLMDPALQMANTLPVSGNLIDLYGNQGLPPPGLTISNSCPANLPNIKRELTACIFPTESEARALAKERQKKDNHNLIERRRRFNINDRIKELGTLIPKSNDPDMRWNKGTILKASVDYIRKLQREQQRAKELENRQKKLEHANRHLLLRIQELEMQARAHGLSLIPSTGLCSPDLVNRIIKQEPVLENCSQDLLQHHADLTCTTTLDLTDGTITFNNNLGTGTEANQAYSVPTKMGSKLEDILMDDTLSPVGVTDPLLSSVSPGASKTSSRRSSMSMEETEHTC

[13] = biological target: T5, Carboxy-terminal domain RNA polymerase II polypeptide A small phosphatase 1 (Homo sapiens, UniProt Q9GZU7); assay: CTDSP1 inhibitors, concentration-response, biochemical, absorbance readout, ultra-high-throughput screen actives (AID 540297); format: functional
T5 sequence (Q9GZU7 whole entry): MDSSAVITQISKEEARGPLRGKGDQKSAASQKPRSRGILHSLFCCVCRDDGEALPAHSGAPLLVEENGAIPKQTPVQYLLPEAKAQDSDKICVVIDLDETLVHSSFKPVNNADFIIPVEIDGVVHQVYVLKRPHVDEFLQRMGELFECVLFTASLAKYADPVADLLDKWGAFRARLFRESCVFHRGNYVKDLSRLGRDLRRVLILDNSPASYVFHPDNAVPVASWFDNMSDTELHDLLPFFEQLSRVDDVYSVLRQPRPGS

Fatty acid synthase [14] = biological target: T6, Fatty acid synthase (Homo sapiens, UniProt P49327); assay: inhibition of human FAS-TE enzyme activity – biochemical, kinetic fluorescence intensity, dose response (AID 624326); format: functional;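 further: rate of fluorescence rise from hydrolysis of a fluorogenic O-methyl fluorescein ester substrate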
T6 sequence (P49327 whole entry): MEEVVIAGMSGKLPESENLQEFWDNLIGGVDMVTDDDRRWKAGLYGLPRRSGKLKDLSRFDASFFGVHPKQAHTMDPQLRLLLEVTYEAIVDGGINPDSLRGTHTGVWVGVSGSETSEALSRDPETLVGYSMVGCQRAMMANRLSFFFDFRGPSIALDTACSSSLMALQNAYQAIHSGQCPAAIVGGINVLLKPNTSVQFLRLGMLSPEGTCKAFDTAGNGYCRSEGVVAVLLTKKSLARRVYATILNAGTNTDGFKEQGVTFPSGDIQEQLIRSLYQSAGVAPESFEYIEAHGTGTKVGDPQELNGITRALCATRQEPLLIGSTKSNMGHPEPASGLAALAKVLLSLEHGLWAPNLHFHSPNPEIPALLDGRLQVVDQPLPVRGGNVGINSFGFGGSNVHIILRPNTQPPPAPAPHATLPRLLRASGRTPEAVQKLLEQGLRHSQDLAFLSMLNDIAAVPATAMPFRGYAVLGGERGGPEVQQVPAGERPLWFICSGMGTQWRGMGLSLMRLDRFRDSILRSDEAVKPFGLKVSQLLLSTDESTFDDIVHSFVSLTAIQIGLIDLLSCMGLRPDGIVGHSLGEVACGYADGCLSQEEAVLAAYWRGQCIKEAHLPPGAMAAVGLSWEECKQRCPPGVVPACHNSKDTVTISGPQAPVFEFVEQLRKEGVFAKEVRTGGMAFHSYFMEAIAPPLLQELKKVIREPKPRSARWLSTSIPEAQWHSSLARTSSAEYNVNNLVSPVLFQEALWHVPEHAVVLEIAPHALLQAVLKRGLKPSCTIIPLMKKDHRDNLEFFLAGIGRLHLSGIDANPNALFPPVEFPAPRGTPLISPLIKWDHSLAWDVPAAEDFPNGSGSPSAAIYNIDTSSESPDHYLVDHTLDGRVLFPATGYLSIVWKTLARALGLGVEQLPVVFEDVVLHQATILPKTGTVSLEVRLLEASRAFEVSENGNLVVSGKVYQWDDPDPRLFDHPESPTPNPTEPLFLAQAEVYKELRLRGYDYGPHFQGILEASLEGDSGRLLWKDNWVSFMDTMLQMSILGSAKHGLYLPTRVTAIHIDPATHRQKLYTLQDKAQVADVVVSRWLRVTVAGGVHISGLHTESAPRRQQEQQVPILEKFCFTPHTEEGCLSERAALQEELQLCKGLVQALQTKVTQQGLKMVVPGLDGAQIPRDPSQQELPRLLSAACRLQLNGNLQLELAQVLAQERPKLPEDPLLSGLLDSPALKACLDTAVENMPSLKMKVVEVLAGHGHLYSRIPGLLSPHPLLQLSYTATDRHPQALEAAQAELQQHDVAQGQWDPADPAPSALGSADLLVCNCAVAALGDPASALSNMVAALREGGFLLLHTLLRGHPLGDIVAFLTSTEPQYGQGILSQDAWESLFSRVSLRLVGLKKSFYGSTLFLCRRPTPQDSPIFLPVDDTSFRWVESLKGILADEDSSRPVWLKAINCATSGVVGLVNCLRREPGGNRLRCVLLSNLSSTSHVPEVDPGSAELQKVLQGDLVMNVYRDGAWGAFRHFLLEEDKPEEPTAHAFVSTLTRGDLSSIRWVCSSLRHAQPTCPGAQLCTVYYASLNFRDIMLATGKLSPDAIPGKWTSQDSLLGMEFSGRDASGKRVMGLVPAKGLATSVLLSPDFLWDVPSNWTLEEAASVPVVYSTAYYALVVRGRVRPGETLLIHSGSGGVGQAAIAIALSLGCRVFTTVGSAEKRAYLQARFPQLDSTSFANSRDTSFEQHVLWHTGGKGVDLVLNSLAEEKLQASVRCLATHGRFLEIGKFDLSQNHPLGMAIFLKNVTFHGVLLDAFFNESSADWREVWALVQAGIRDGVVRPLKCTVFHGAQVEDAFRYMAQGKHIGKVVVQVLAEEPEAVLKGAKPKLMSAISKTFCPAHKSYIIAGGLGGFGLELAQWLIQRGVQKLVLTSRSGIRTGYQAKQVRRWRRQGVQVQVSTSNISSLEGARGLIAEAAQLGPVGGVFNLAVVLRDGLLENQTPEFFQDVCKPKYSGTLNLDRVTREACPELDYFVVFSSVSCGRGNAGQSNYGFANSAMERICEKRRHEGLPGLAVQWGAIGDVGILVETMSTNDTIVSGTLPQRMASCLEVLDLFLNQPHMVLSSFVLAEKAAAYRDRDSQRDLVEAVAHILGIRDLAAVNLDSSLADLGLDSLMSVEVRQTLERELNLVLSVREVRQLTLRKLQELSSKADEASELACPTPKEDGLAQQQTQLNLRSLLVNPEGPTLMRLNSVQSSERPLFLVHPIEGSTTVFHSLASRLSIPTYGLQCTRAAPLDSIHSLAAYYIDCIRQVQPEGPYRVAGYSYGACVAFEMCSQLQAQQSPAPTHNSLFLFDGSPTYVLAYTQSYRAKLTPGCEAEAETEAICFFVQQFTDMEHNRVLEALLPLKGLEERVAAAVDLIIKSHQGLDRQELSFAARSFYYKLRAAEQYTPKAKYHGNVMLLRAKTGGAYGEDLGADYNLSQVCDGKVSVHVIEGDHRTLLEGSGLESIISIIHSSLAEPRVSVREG

Fatty acid synthase [15] = biological target: T6, Fatty acid synthase; assay: inhibition of human FAS-TE enzyme activity – biochemical, endpoint fluorescence intensity, uHTS hits, dose response (AID 624327); format: functional;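 further: fluorescence from hydrolysis of an O-methyl fluorescein acyl ester substrate by the enzyme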

Chain of Cytochrome P450 3A4 (P08684 whole entry): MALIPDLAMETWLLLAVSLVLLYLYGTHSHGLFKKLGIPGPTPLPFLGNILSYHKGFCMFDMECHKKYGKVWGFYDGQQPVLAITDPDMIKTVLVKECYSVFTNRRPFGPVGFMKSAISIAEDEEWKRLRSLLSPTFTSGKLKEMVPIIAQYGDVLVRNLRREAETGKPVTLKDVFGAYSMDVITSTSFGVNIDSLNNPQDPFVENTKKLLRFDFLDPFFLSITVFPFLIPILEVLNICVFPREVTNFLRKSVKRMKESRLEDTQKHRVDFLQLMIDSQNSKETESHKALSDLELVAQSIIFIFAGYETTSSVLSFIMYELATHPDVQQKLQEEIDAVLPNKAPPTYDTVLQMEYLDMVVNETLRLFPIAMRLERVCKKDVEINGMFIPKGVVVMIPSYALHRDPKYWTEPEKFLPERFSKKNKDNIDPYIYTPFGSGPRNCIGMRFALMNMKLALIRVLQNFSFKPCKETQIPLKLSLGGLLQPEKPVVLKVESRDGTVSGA

COc1ccc(CNC(=O)C(C)Cc2ccccc2)cc1O (configuration not stated)
AC50 (Cytochrome P450 3A4): 6.31 µM (inconclusive)

N#Cc1c(N)sc(=S)c2c1CCCCC2
IC50 (Large T antigen): 46.4 µM (active) | IC50 (Genome polyprotein): > 100 µM (active)

O=C(NCCc1ccccc1)C1CCN(C(=O)c2ccc([N+](=O)[O-])cc2)CC1
EC50 (cells [1]): > 29.9 µM (inactive) | IC50 (cells [2]): > 29.9 µM (inactive)

COc1cc(/C=C2\C(C)=C(C#N)c3nc(N)c(C#N)c(C)c32)ccc1OCC(=O)O
IC50 (Large T antigen): 58.1 µM (active)

Nc1ccc(-c2ccc(N)c(O)c2)cc1O
AC50 (Cytochrome P450 3A4): 31.6 µM (inconclusive)

CCC(CO)Oc1cc(NC(=O)c2ccccc2C)c2ncn(C(C)C)c2c1 (configuration not stated)
IC50 [3]: > 66.6 µM (inactive) | IC50 [4]: 17.6 µM (active)

COC(=O)c1ccc(CN2[C@@H]3C[C@@H](O)CC[C@@H]3C[C@H]2C(=O)OC)cc1
AC50 (Cytochrome P450 3A4): 15.8 µM (inconclusive)

O=C(N/N=C(\c1ccccc1)c1cccnc1)c1cc(O)ccc1O
IC50 (Large T antigen): 6.14 µM (active)

CC(C)(C)NC(=O)CN(C(=O)CCN1CCCc2ccccc21)C(C)(C)C
IC50 (Protein skinhead-1): > 100 µM (inactive) | AC50 [5]: 4.37 µM (active) | IC50 [6]: > 66 µM (inactive) | IC50 [7]: > 66 µM (inactive)

O=C(NCCCN1CCOCC1)c1ccc(/C=C2\Oc3ccccc3N(Cc3ccccc3F)C2=O)cc1
IC50 (Vero [8]): 21.9 µM (active)

CS(=O)(=O)c1ccc2nc(NC(=O)C3CC(=O)N(c4ccc(F)cc4)C3)sc2c1 (configuration not stated)
EC50 (cells [9]): > 350 µM (not active) | EC50 (cells [10]): > 350 µM (not active)

O=C(NCCN1CCC(n2c(O)nc3ccccc32)CC1)c1cccc2c1-c1ccccc1C2=O
IC50 [3]: > 66.6 µM (inactive) | IC50 [4]: 17.9 µM (active)

CCN(CC)S(=O)(=O)c1ccc(N2CCCC2)c(NC(=O)c2ccc([N+](=O)[O-])o2)c1
CC50 (Vero [11]): 17.8 µM (active) | AC50 [12]: 3.18 µM (active) | IC50 (Vero [8]): > 25 µM (active)

COc1cccc(/C=N/NC(=O)CSc2ccccc2C)c1O
EC50 (cells [9]): 52.4 µM (active) | EC50 (cells [10]): 30.4 µM (active)

CCCCCCN(C(=O)CCCCCN1C(=O)NC(c2ccc(-c3ccccc3)cc2)C(C(=O)OCc2ccccc2)=C1C)C(C(=O)NCCCC)c1ccccc1 (configuration not stated)
AC50 (Cytochrome P450 3A4): 2 µM (inconclusive)

COc1ccc(OC)c(NC(=O)CSc2ncnc3sc(C)cc23)c1
IC50 [13]: 5.46 µM (active)

CC(CNC(=O)C1CCCCC1C(=O)O)c1ccccc1 (configuration not stated)
EC50 (cells [1]): > 29.9 µM (inactive) | IC50 (cells [2]): > 29.9 µM (inactive)

CCOC(=O)Cc1csc(SCC(=O)Nc2sc3c(c2C(N)=O)CCC3)n1
IC50 [13]: 4.63 µM (active)

COc1ccc(CN(Cc2cc3cccc(C)c3n3nnnc23)C(=O)N2CCOCC2)cc1
IC50 (Fatty acid synthase [14]): 26.4 µM (inactive) | IC50 (Fatty acid synthase [15]): 18.8 µM (active)
